Results taken from US4088757A, “4'Alpha- and 4'beta-amino-4'-desoxyoleandrins, and pharmaceutical composition containing same” (Beiersdorf Aktiengesellschaft, priority 1976, dated 1978).
≈ marks a conversion by molar mass, not a printed value.

Assays:
[1] = system: papillary muscle of the guinea pig; assay: inotropic effect on the papillary muscle of the guinea pig in vitro; settings: Cavia porcellus, 40% ethanol and 60% water mixture, read-out: ED50 (amount of drug necessary to increase the contractile force of the muscle by 50%)
Protocol: 2. The inotropic effect of both drugs was tested on the papillary muscle of the guinea pig in vitro. The muscle was connected to a recording device and then placed in a bath of 0.1% solution of the drug to be tested in a mixture of 40% ethanol and 60% water. This solution was gradually diluted with water and a dosage versus contraction graph plotted. The amount of drug necessary to increase the contractile force of the muscle by 50% (ED50) was then calculated.

[2] = type: in vivo; settings: cat, intravenous; for preferential route of elimination (in words): tritium-marked drug; for Biliary Elimination: tritium-marked drug in feces; for Biliary Elimination / Renal Elimination: % of activity originally injected; for Renal Elimination: tritium-marked drug in urine
Protocol: 1. The elimination rate of both drugs in the cat was tested by intravenously injecting a fixed amount of the drugs into the cat and recording the amount of tritium-marked drug appearing in the urine and feces. The results are stated as a percentage of the activity of the tritium-marked glycoside originally injected.

Structure (SMILES) | EC50 [1] | preferential route of elimination (in words) [2] | Biliary Elimination [2] | Renal Elimination [2]
COC1CC(OC2CCC3(C)C(CCC4C3CCC3(C)C(C5=CC(=O)OC5)C(OC(C)=O)CC43O)C2)OC(C)C1N (centres unmarked) [4'-amino-4'-desoxy-oleandrin] | 0.13 µg/mL (≈ 0.226 µM) | preferentially eliminated by the biliary system | 11.1% | 2.5%
C[C@H]1O[C@@H](O[C@H]2[C@@H](O)C[C@H](O[C@H]3[C@@H](O)C[C@H](O[C@H]4CC[C@@]5(C)[C@H](CC[C@@H]6[C@@H]5C[C@@H](O)[C@]5(C)[C@@H](C7=CC(=O)OC7)CC[C@]65O)C4)O[C@@H]3C)O[C@@H]2C)C[C@H](O)[C@@H]1O [digoxin] | 1.1 µg/mL (≈ 1.41 µM) | preferentially eliminated by the renal system | 4.7% | 6.3%
